Twelve compounds from patent US7348347B2, “Substituted 4,5,6,7-tetrahydrobenzthiazol-2-ylamine compounds” (Gruenenthal GmbH, priority 2004, dated 2008) can be followed below.

Molecules are shown by their SMILES.

Test [1] has as its target T1, 5-HT uptake (Rattus norvegicus, UniProt P31652).
T1 construct: from tissue; host or cells: rat brain synaptosomes (P2 fraction) from marrow (medulla) and pons
In words: Inhibition of 5-HT uptake in rat brain synaptosomes. The class given is biochemical. The following applies: rat synaptosomes (medulla and pons), [3H]-5-HT. As for the experimental part:
The relevant literature reference is enclosed herein by reference and is to be regarded as part of the disclosure.
The homogenate is centrifuged at 4° C. for 10 minutes at 1000 g. Following subsequent centrifugation at 17,000 g for 55 minutes, the synaptosomes (P2 fraction) are obtained, which are then resuspended in 0.32 M […] (0.5 mL/100 mg of the original weight).
The respective uptake was measured in a 96 well microtiter plate. The volume was 250 μL and the incubation was carried out at room temperature (ca 20-25° C.) under a blanket of oxygen.
The 96 samples through were then filtered through a Unifilter GF/B® microtiter plate (Packard) and washed with 200 mL of incubated buffer with the aid of a “Brabdel Cell-Harvester MPXRI 96T”. The Unifilter GF/B plate was dried at 55° C. over a period of 1 h. The plate was then sealed with a back seal® (Packard) and there were then added 35 μL of scintillant fluid per well (Ultima Gold, Packard).
A detailed description of the method is disclosed in the literature, for example, in M. Ch.

Test [2] deals with T2, NA transporter (Rattus norvegicus, UniProt Q63380).
T2 construct: from tissue; host or cells: rat brain synaptosomes (P2 fraction) from hypothalamus
In words: Inhibition of noradrenaline uptake in rat brain synaptosomes. In kind it is biochemical. The following applies: 10 μM, rat synaptosomes (hypothalamus), [3H]-NA; for inhibition at 10 µM: read-out: % Inhibition of NA uptake [10 μM]. As for the experimental part:
II. […] For in vitro studies, synaptosomes of rat brain areas are freshly isolated, as described in the article “The isolation of nerve endings from brain” by E. G. Gray and […]. Anatomy 96, pages 79-88, 1962. The relevant literature reference is enclosed herein by reference and is to be regarded as part of the disclosure. […] The homogenate is centrifuged at 4° C. for 10 minutes at 1000 g. […] The respective uptake was measured in a 96 well microtiter plate. The volume was 250 μL and the incubation was carried out at room temperature (ca 20-25° C.) under a blanket of oxygen. […] The 96 samples through were then filtered through a Unifilter GF/B® microtiter plate (Packard) and washed with 200 mL of incubated buffer with the aid of a “Brabdel Cell-Harvester MPXRI 96T”. The Unifilter GF/B plate was dried at 55° C. over a period of 1 h. The plate was then sealed with a back seal® (Packard) and there were then added 35 μL of scintillant fluid per well (Ultima Gold, Packard). Following sealing with a top seal® (Packard) and following adjustment of the equilibrium (approximately over a period of 5 h), the radioactivity is determined in a 1450 Microbeta® (Wallac). […] The amount of protein used in the above determination corresponded to the values known from the literature, such as is described in “Protein measurement with the folin phenol reagent”, Lowry et al., J. Biol. Chem., 193, 265-275, 1951. A detailed description of the method is disclosed in the literature, for example, in […], and B. […] The relevant literature references are incorporated herein by reference and are to be regarded as part of the disclosure.

T1 sequence (P31652 whole entry): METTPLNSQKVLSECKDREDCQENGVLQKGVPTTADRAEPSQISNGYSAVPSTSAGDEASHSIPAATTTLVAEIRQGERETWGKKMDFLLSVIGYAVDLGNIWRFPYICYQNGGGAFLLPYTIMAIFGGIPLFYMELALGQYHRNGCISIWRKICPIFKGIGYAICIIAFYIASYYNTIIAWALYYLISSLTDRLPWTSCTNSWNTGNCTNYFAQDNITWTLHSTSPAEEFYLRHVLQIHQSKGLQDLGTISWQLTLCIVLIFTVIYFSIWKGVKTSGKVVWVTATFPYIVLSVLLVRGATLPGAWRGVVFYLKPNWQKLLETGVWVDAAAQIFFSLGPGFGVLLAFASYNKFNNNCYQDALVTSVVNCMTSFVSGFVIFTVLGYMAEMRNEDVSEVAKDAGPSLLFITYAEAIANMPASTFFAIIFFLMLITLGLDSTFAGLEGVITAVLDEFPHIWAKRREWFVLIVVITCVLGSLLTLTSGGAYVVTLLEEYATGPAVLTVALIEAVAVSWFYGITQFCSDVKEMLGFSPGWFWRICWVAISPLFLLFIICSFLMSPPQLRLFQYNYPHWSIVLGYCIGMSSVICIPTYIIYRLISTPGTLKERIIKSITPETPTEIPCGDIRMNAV
T2 sequence (Q63380 1-617): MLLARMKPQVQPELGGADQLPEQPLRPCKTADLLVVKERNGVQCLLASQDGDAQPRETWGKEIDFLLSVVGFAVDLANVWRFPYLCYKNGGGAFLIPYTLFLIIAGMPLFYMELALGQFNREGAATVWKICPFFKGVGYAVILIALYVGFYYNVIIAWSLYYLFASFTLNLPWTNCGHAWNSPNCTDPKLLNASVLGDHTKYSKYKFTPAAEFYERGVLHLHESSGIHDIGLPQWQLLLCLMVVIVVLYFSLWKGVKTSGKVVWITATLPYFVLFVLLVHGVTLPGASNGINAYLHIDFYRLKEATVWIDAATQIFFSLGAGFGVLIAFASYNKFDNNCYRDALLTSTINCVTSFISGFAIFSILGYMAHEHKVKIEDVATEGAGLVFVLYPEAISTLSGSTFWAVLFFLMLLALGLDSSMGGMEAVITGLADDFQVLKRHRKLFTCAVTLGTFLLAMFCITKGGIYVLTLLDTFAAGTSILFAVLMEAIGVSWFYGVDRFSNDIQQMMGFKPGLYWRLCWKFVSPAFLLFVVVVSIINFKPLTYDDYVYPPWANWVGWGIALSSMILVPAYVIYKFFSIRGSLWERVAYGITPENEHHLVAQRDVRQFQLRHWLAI

With `CC(C)(C)CC(=O)Nc1nc2c(s1)CCCC2C(=O)N1CCN(Cc2ccccc2)CC1` (stereo not drawn) [Example 82, N-[4-(4-Benzylpiperazin-1-carbonyl)-4,5,6,7-tetrahydrobenzthiazol-2-yl]-3,3-dimethylbutyramide], the inhibition at 10 µM came to 41% in test [1] and 64% in test [2].
Turning to `COc1cc(Br)c(CN2CCC(NC(=O)C3CCCc4sc(NC(=O)C(C)c5ccccc5)nc43)C2)cc1OC` (stereo not drawn) [Example 33], the “% Inhibition of 5-HT uptake [10 μM]” value in test [1] came to 63%. Further, the “% Inhibition of NA uptake [10 μM]” value in test [2] was 79%.
With `COc1cccc(N2CCN(C(=O)C3CCCc4sc(NC(=O)c5ccccc5)nc43)CC2)c1` (stereo not drawn) [Example 28, N-{4-[4-(3-Methoxyphenyl)piperazin-1-carbonyl]-4,5,6,7-tetrahydrobenzthiazol-2-yl}benzamide], the inhibition at 10 µM was found to be 48% in test [1] and 60% in test [2].
With `O=C(Cc1cccs1)Nc1nc2c(s1)CCCC2C(=O)NCCCN1CCOCC1` (stereo not drawn) [Example 14], in test [1], the “% Inhibition of 5-HT uptake [10 μM]” value came to 50%. Further, the “% Inhibition of NA uptake [10 μM]” value in test [2] is on record as 43%.
Consider `CCCC(=O)Nc1nc2c(s1)CCCC2C(=O)N1CCN(Cc2cc3ccccc3o2)CC1` (stereo not drawn) [Example 27, N-[4-(4-Benzofuran-2-ylmethylpiperazin-1-carbonyl)-4,5,6,7-tetrahydrobenzthiazol-2-yl]butyramide], for which the inhibition at 10 µM in test [1] was 61%; in test [2], 47%.
The matching figures for `O=C(CCc1ccccc1)Nc1nc2c(s1)CCCC2C(=O)NCC1CCN(Cc2ccc(-c3ccccc3)cc2)C1` (stereo not drawn) [Example 55, 2-(3-Phenylpropionylamino)-4,5,6,7-tetrahydrobenzthiazol-4-carboxylic acid (1-biphenyl-4-ylmethylpyrrolidin-3-yl)methylamide]: 54% and 44%.
Regarding `CC(C)(C)CC(=O)Nc1nc2c(s1)CCCC2C(=O)NC1CCN(Cc2ccccc2OCc2ccccc2)C1` (stereo not drawn) [Example 73, 2-(3,3-Dimethylbutyrylamino)-4,5,6,7-tetrahydrobenzthiazol-4-carboxylic acid [1-(2-benzyloxybenzyl)pyrrolidin-3-yl]amide], the inhibition at 10 µM in test [1] came to 71%; in test [2], 75%.
In the same order, the values of `COc1ccc(C(=O)Nc2nc3c(s2)CCCC3C(=O)NCC2CCN(Cc3c(F)cccc3Cl)C2)cc1` (stereo not drawn) [Example 12, 2-(4-Methoxybenzoylamino)-4,5,6,7-tetrahydrobenzthiazol-4-carboxylic acid [1-(2-chloro-6-fluorobenzyl)pyrrolidin-3-yl]methylamide] are 55% and 48%.
In the same order, the values of `COc1ccc(N2CCN(C(=O)C3CCCc4sc(NC(=O)c5ccccc5)nc43)CC2C)cc1` (stereo not drawn) [Example 7, N-{4-[4-(4-Methoxyphenyl)-3-methylpiperazin-1-carbonyl]-4,5,6,7-tetrahydrobenzthiazol-2-yl]-benzamide] are 51% and 48%.
`O=C(Nc1nc2c(s1)CCCC2C(=O)N1CCN(c2ccccn2)CC1)c1ccoc1` (stereo not drawn) [Example 64, Furan-3-carboxylic acid[4-(4-pyridin-2-ylpiperazin-1-carbonyl)-4,5,6,7-tetrahydrobenzthiazol-2-yl]amide]: in test [1], the “% Inhibition of 5-HT uptake [10 μM]” value is listed as 48%. Also, the “% Inhibition of NA uptake [10 μM]” value in test [2] was 53%.
For the compound `O=C(CCc1ccccc1)Nc1nc2c(s1)CCCC2C(=O)NCC1CCN(Cc2cc3ccccc3o2)C1` (stereo not drawn) [Example 48, 2-(3-Phenylpropionylamino)-4,5,6,7-tetrahydrobenzthiazol-4-carboxylic acid (1-benzofuran-2-ylmethylpyrrolidin-3-yl)methylamide], the values for the inhibition at 10 µM in test [1] and in test [2] were 51% and 67%, respectively.
On to `O=C(CC1CCCCC1)Nc1nc2c(s1)CCCC2C(=O)NCC1CCN(Cc2c(Cl)cccc2Cl)C1` (stereo not drawn) [Example 67, 2-(2-cyclohexylacetylamino)-4,5,6,7-tetrahydrobenzthiazol-4-carboxylic acid[1-(2,6-dichlorobenzyl)pyrrolidin-3-yl]methylamide], for which the “% Inhibition of 5-HT uptake [10 μM]” value in test [1] worked out at 97%. The “% Inhibition of NA uptake [10 μM]” value in test [2] worked out at 42%.

The term inhibition denotes the percentage by which the read-out fell short of the control.
